Species: Rattus norvegicus
Test: DrugMatrix - Regimen: Daily Repeat
Assay type: toxicity, organism-based, Sprague-Dawley
Set-up: regimen Daily Repeat, gender Male, age 6-8 weeks
Details: in vivo, vehicle 100 % SALINE; for ABSOLUTE BASOPHIL / ABSOLUTE EOSINOPHIL / ABSOLUTE LYMPHOCYTE / ABSOLUTE MONOCYTE / ABSOLUTE SEGMENTED NEUTROPHIL / BASOPHIL / EOSINOPHIL / ERYTHROCYTE COUNT / HEMATOCRIT / HEMOGLOBIN / LEUKOCYTE COUNT / LYMPHOCYTE / MEAN CORPUSCULAR HEMOGLOBIN / MEAN CORPUSCULAR HEMOGLOBIN CONCENTRATION / MEAN CORPUSCULAR VOLUME / MONOCYTE / NEUTROPHIL / NUCLEATED RED BLOOD CELLS / PLATELET COUNT: tissue Blood
[1] = iv, 0 mg/kg, 72 h, dose level Control, time 3 day
[2] = iv, 0 mg/kg, 72 h, tissue Plasma, dose level Control, time 3 day
[3] = iv, 0 mg/kg, 120 h, dose level Control, time 5 day
[4] = iv, 0 mg/kg, 120 h, tissue Plasma, dose level Control, time 5 day
[5] = iv, 6 mg/kg, 72 h, dose level Low, time 3 day
[6] = iv, 6 mg/kg, 72 h, tissue Plasma, dose level Low, time 3 day

Sequence: CARBOPLATIN
- TOTAL PROTEIN (ip, 5 mg/kg, […], tissue Plasma, route intraperitoneal, dose level High, time 28 day): 6.92 G/DL
- ABSOLUTE BASOPHIL [1]: 0 CELLS/uL
- ABSOLUTE EOSINOPHIL [1]: 0 CELLS/uL
- ABSOLUTE LYMPHOCYTE [1]: 7026.17 CELLS/uL
- ABSOLUTE MONOCYTE [1]: 44.33 CELLS/uL
- ABSOLUTE SEGMENTED NEUTROPHIL [1]: 379.5 CELLS/uL
- BASOPHIL [1]: 0%
- EOSINOPHIL [1]: 0%
- ERYTHROCYTE COUNT [1]: 5.49 x10E6/uL
- HEMATOCRIT [1]: 33.67%
- HEMOGLOBIN [1]: 13.17 G/DL
- LEUKOCYTE COUNT [1]: 7.45 x10E3/uL
- LYMPHOCYTE [1]: 94%
- MEAN CORPUSCULAR HEMOGLOBIN [1]: 24.03 pg
- MEAN CORPUSCULAR HEMOGLOBIN CONCENTRATION [1]: 39.15 G/DL
- MEAN CORPUSCULAR VOLUME [1]: 61.4 fL
- MONOCYTE [1]: 0.67%
- NEUTROPHIL [1]: 5.33%
- NUCLEATED RED BLOOD CELLS [1]: 0.17 /100WBC
- PLATELET COUNT [1]: 1062.5 x10E3/uL
- ALANINE AMINOTRANSFERASE [2]: 53.17 u/L
- ALKALINE PHOSPHATASE [2]: 339.83 u/L
- ASPARTATE AMINOTRANSFERASE [2]: 83.33 u/L
- BLOOD UREA NITROGEN [2]: 16 mg/dL
- CARBON DIOXIDE [2]: 32.5 mmol/L
- CHLORIDE [2]: 98 MEQ/L
- CHOLESTEROL [2]: 74.67 mg/dL
- CREATINE PHOSPHOKINASE [2]: 284 u/L
- CREATININE [2]: 0.2 mg/dL
- GLUCOSE [2]: 128.67 mg/dL
- LACTATE DEHYDROGENASE [2]: 110.33 u/L
- LIPASE [2]: 9 u/L
- PHOSPHORUS [2]: 11.73 mg/dL
- POTASSIUM [2]: 6.34 MEQ/L
- TOTAL BILIRUBIN [2]: 0.18 mg/dL
- TOTAL PROTEIN [2]: 6.2 G/DL
- URIC ACID [2]: 1.28 mg/dL
- ABSOLUTE BASOPHIL [3]: 0 CELLS/uL
- ABSOLUTE EOSINOPHIL [3]: 26.67 CELLS/uL
- ABSOLUTE LYMPHOCYTE [3]: 8334.17 CELLS/uL
- ABSOLUTE MONOCYTE [3]: 29.5 CELLS/uL
- ABSOLUTE SEGMENTED NEUTROPHIL [3]: 593 CELLS/uL
- BASOPHIL [3]: 0%
- EOSINOPHIL [3]: 0.33%
- ERYTHROCYTE COUNT [3]: 5.44 x10E6/uL
- HEMATOCRIT [3]: 33.77%
- HEMOGLOBIN [3]: 13.05 G/DL
- LEUKOCYTE COUNT [3]: 8.98 x10E3/uL
- LYMPHOCYTE [3]: 92.33%
- MEAN CORPUSCULAR HEMOGLOBIN [3]: 24 pg
- MEAN CORPUSCULAR HEMOGLOBIN CONCENTRATION [3]: 38.67 G/DL
- MEAN CORPUSCULAR VOLUME [3]: 62.05 fL
- MONOCYTE [3]: 0.33%
- NEUTROPHIL [3]: 7%
- NUCLEATED RED BLOOD CELLS [3]: 0 /100WBC
- PLATELET COUNT [3]: 987 x10E3/uL
- ALANINE AMINOTRANSFERASE [4]: 43.5 u/L
- ALKALINE PHOSPHATASE [4]: 310.17 u/L
- ASPARTATE AMINOTRANSFERASE [4]: 76.67 u/L
- BLOOD UREA NITROGEN [4]: 17 mg/dL
- CHLORIDE [4]: 100.33 MEQ/L
- CHOLESTEROL [4]: 69.33 mg/dL
- CREATINE PHOSPHOKINASE [4]: 218.67 u/L
- CREATININE [4]: 0.22 mg/dL
- GLUCOSE [4]: 155.17 mg/dL
- PHOSPHORUS [4]: 11.2 mg/dL
- POTASSIUM [4]: 5.5 MEQ/L
- TOTAL BILIRUBIN [4]: 0.18 mg/dL
- TOTAL PROTEIN [4]: 5.97 G/DL
- URIC ACID [4]: 0.88 mg/dL
- ABSOLUTE BASOPHIL [5]: 0 CELLS/uL
- ABSOLUTE EOSINOPHIL [5]: 20.67 CELLS/uL
- ABSOLUTE LYMPHOCYTE [5]: 6996.67 CELLS/uL
- ABSOLUTE MONOCYTE [5]: 29.33 CELLS/uL
- ABSOLUTE SEGMENTED NEUTROPHIL [5]: 353.33 CELLS/uL
- BASOPHIL [5]: 0%
- EOSINOPHIL [5]: 0.33%
- ERYTHROCYTE COUNT [5]: 5.49 x10E6/uL
- HEMATOCRIT [5]: 35.33%
- HEMOGLOBIN [5]: 13.67 G/DL
- LEUKOCYTE COUNT [5]: 7.4 x10E3/uL
- LYMPHOCYTE [5]: 94.67%
- MEAN CORPUSCULAR HEMOGLOBIN CONCENTRATION [5]: 38.67 G/DL
- MONOCYTE [5]: 0.33%
- NEUTROPHIL [5]: 4.67%
- NUCLEATED RED BLOOD CELLS [5]: 0 /100WBC
- PLATELET COUNT [5]: 803.67 x10E3/uL
- ALANINE AMINOTRANSFERASE [6]: 44.67 u/L
- ALBUMIN [6]: 4.3 G/DL
- ALKALINE PHOSPHATASE [6]: 291.67 u/L
- ASPARTATE AMINOTRANSFERASE [6]: 75.67 u/L
- CARBON DIOXIDE [6]: 32 mmol/L
- CHLORIDE [6]: 97.67 MEQ/L
- CHOLESTEROL [6]: 72.33 mg/dL
- CREATINE PHOSPHOKINASE [6]: 262.33 u/L
- CREATININE [6]: 0.2 mg/dL
- GLUCOSE [6]: 147.33 mg/dL
- LACTATE DEHYDROGENASE [6]: 105 u/L
- LIPASE [6]: 9 u/L
- POTASSIUM [6]: 6.04 MEQ/L
- TOTAL BILIRUBIN [6]: 0.17 mg/dL
